# According to patent publication US12643871B2, “Aryl formamide compound containing chiral sulfur oxide or salt thereof, preparation method, herbicidal composition and use thereof” (Qingdao Kingagroot Chemical Compound Co., Ltd., priority 2019, dated 2026):
# Tests used:
# Assay type in all cases: in vivo
# Digitaria sanguinalis [1] = assay: Comparison experiment (post-emergence) against racemate / S configuration; details: Digitaria sanguinalis (3.5 leaf), 16DAA
# Corn-Zhengdan 958 = assay: Comparison experiment (post-emergence, Table 7), crop safety on corn; details: Corn-Zhengdan 958 (3.5 leaf)
# Excerpt: (§1) If there is no clear marker, the post-seedling test conditions are the same as above, and the experimental results are shown in Tables 4-7.
# Green Setaria viridis = assay: Comparison experiment (post-emergence) against racemate / S configuration; details: for Results of comparison experiment (16DAA), weed control: Setaria viridis (4 leaf)
# Abutilon theophrasti = assay: as above; details: Abutilon theophrasti (3.5 leaf), 16DAA
# Leptochloa chinensis = assay: as above; details: Leptochloa chinensis (4.5 leaf), 16DAA
# Veronica didyma = assay: Comparison experiment (post-emergence, Table 7); details: Veronica didyma (2 branches)
# Excerpt: as §1
# Amaranthus retroflexus = assay: Comparison experiment (post-emergence, Table 7); details: Amaranthus retroflexus (6 leaf)
# Excerpt: as §1
# Galium aparine = assay: Comparison experiment (post-emergence, Table 7); details: Galium aparine (5 branches)
# Excerpt: as §1
# Malachium aquaticum = assay: Comparison experiment (post-emergence, Table 7); details: Malachium aquaticum (2 branches)
# Excerpt: as §1
# Capsella bursa-pastoris = assay: Comparison experiment (post-emergence, Table 7); details: Capsella bursa-pastoris (10-11 leaf)
# Excerpt: as §1
# Sinapis arvensis = assay: Comparison experiment (post-emergence, Table 7); details: Sinapis arvensis (3.5 leaf)
# Excerpt: as §1
# Descurainia sophia = assay: Comparison experiment (post-emergence, Table 7); details: Descurainia sophia (12 leaf)
# Excerpt: as §1
# Echinochloa crusgali = assay: Comparison experiment (post-emergence, Table 7); details: Echinochloa crusgali (3 leaf)
# Excerpt: as §1
# Alopecurus japonicas = assay: Comparison experiment (post-emergence) against racemate / S configuration; details: Table 6, post-seedling test conditions
# Excerpt: (§2) The above growth control rates are fresh weight control rates.
# (§3) Experiment on weeding effect in post-emergence stage: monocotyledonous and dicotyledonous weed seeds (Descurainia sophia, Capsella bursa-pastoris, Galium aparine, Stellaria media, Lithospermum arvense, Rorippa indica, Alopecurus aequalis, Beckmannia syzigachne, Sclerochloa dura, Phleum paniculatum, Bromus japonicus, Aegilops tauschii, Phalaris arundinacea, Amaranthus retroflexus, Chenopodiaceae, Commelina communis, Sonchus arvensis, convolvulus arvensis, Cirsium setosum, Solanum nigrum, Acalypha australis, Digitaria sanguinalis, Echinochloa crusgalli, Setaria viridis, Setaria glauca, Leptochloa chinensis, Monochoria vaginalis, Sagittaria trifolia, Scirpus juncoides, Cyperus rotundus, Cyperus iria, Cyperus difformis, Fimbristylis, Portulaca oleracea, Xanthium sibiricum, Pharbitis nil) and major crop seeds (wheat, corn, rice, soybean, cotton, oilseed rape, millet, sorghum, potato, sesame, ricinus) were placed in plastic pots filled with soil, then covered with 0.5-2 cm of soil, allowed to grow in a good greenhouse environment. After 2 weeks of sowing, the test plants were treated in the 2 leaf stage. The tested compounds of the present invention were respectively dissolved in acetone, then added with Tween 80 and 1.5 liter/ha of emulsifiable concentrate of methyl oleate as synergist, diluted with a certain amount of water to obtain a solution with a certain concentration, and sprayed with a spray tower onto the plants. After the application, the plants were cultured for 15 days in the greenhouse, and then the experimental results of the weeding were counted. The doses of the used compounds were 500, 250, 125, 60, 30, 15 g/ha, and the averages were obtained by repeating for three times.
# as §1
# Digitaria sanguinalis [2] = assay: as above; details: Digitaria sanguinalis, post-emergence, Table 6, post-seedling test conditions
# Excerpt: as §2, §3, §1
smiles,measurement,setting,value
CC[S@@+]([O-])c1c(C(F)(F)F)ccc(C(=O)Nc2nnc(C)o2)c1SC [Compound 548],"Results of comparison experiment (16DAA), weed control",Digitaria sanguinalis [1]; 3 g/ha,40%
same,"Results of comparison experiment (16DAA), weed control",Digitaria sanguinalis [1]; 6 g/ha,40%
same,"Results of comparison experiment (16DAA), weed control",Digitaria sanguinalis [1]; 12 g/ha,60%
same,"Results of comparison experiment (16DAA), weed control",Digitaria sanguinalis [1]; 24 g/ha,80%
same,"Results of comparison experiment (16DAA), weed control",Digitaria sanguinalis [1]; 48 g/ha,100%
same,"Results of comparison experiment (16DAA), crop damage",Corn-Zhengdan 958; 3 g/ha,0%
same,"Results of comparison experiment (16DAA), crop damage",Corn-Zhengdan 958; 6 g/ha,0%
same,"Results of comparison experiment (16DAA), crop damage",Corn-Zhengdan 958; 12 g/ha,0%
same,"Results of comparison experiment (16DAA), crop damage",Corn-Zhengdan 958; 24 g/ha,0%
same,"Results of comparison experiment (16DAA), crop damage",Corn-Zhengdan 958; 48 g/ha,0%
same,"Results of comparison experiment, Green Setaria viridis (30 g/ha)","Green Setaria viridis; 30 g/ha, Table 6, post-seedling test conditions",100%
same,"Results of comparison experiment (16DAA), weed control",Green Setaria viridis; 3 g/ha,20%
same,"Results of comparison experiment (16DAA), weed control",Green Setaria viridis; 6 g/ha,40%
same,"Results of comparison experiment (16DAA), weed control",Green Setaria viridis; 12 g/ha,80%
same,"Results of comparison experiment (16DAA), weed control",Green Setaria viridis; 24 g/ha,100%
same,"Results of comparison experiment (16DAA), weed control",Green Setaria viridis; 48 g/ha,100%
same,"Results of comparison experiment (16DAA), weed control",Abutilon theophrasti; 3 g/ha,30%
same,"Results of comparison experiment (16DAA), weed control",Abutilon theophrasti; 6 g/ha,40%
same,"Results of comparison experiment (16DAA), weed control",Abutilon theophrasti; 12 g/ha,50%
same,"Results of comparison experiment (16DAA), weed control",Abutilon theophrasti; 24 g/ha,70%
same,"Results of comparison experiment (16DAA), weed control",Abutilon theophrasti; 48 g/ha,100%
same,"Results of comparison experiment (16DAA), weed control",Leptochloa chinensis; 3 g/ha,0%
same,"Results of comparison experiment (16DAA), weed control",Leptochloa chinensis; 6 g/ha,20%
same,"Results of comparison experiment (16DAA), weed control",Leptochloa chinensis; 12 g/ha,50%
same,"Results of comparison experiment (16DAA), weed control",Leptochloa chinensis; 24 g/ha,70%
same,"Results of comparison experiment (16DAA), weed control",Leptochloa chinensis; 48 g/ha,80%
same,"Results of comparison experiment (16DAA), weed control",Veronica didyma; 3 g/ha,10%
same,"Results of comparison experiment (16DAA), weed control",Veronica didyma; 6 g/ha,20%
same,"Results of comparison experiment (16DAA), weed control",Veronica didyma; 12 g/ha,20%
same,"Results of comparison experiment (16DAA), weed control",Veronica didyma; 24 g/ha,50%
same,"Results of comparison experiment (16DAA), weed control",Veronica didyma; 48 g/ha,70%
same,"Results of comparison experiment (16DAA), weed control",Amaranthus retroflexus; 3 g/ha,30%
same,"Results of comparison experiment (16DAA), weed control",Amaranthus retroflexus; 6 g/ha,40%
same,"Results of comparison experiment (16DAA), weed control",Amaranthus retroflexus; 12 g/ha,60%
same,"Results of comparison experiment (16DAA), weed control",Amaranthus retroflexus; 24 g/ha,80%
same,"Results of comparison experiment (16DAA), weed control",Amaranthus retroflexus; 48 g/ha,100%
same,"Results of comparison experiment (16DAA), weed control",Galium aparine; 3 g/ha,10%
same,"Results of comparison experiment (16DAA), weed control",Galium aparine; 6 g/ha,10%
same,"Results of comparison experiment (16DAA), weed control",Galium aparine; 12 g/ha,20%
same,"Results of comparison experiment (16DAA), weed control",Galium aparine; 24 g/ha,20%
same,"Results of comparison experiment (16DAA), weed control",Galium aparine; 48 g/ha,30%
same,"Results of comparison experiment (16DAA), weed control",Malachium aquaticum; 3 g/ha,30%
same,"Results of comparison experiment (16DAA), weed control",Malachium aquaticum; 6 g/ha,50%
same,"Results of comparison experiment (16DAA), weed control",Malachium aquaticum; 12 g/ha,70%
same,"Results of comparison experiment (16DAA), weed control",Malachium aquaticum; 24 g/ha,100%
same,"Results of comparison experiment (16DAA), weed control",Malachium aquaticum; 48 g/ha,100%
same,"Results of comparison experiment (16DAA), weed control",Capsella bursa-pastoris; 3 g/ha,10%
same,"Results of comparison experiment (16DAA), weed control",Capsella bursa-pastoris; 6 g/ha,30%
same,"Results of comparison experiment (16DAA), weed control",Capsella bursa-pastoris; 12 g/ha,50%
same,"Results of comparison experiment (16DAA), weed control",Capsella bursa-pastoris; 24 g/ha,70%
same,"Results of comparison experiment (16DAA), weed control",Capsella bursa-pastoris; 48 g/ha,100%
same,"Results of comparison experiment (16DAA), weed control",Sinapis arvensis; 3 g/ha,30%
same,"Results of comparison experiment (16DAA), weed control",Sinapis arvensis; 6 g/ha,40%
same,"Results of comparison experiment (16DAA), weed control",Sinapis arvensis; 12 g/ha,50%
same,"Results of comparison experiment (16DAA), weed control",Sinapis arvensis; 24 g/ha,60%
same,"Results of comparison experiment (16DAA), weed control",Sinapis arvensis; 48 g/ha,80%
same,"Results of comparison experiment (16DAA), weed control",Descurainia sophia; 3 g/ha,50%
same,"Results of comparison experiment (16DAA), weed control",Descurainia sophia; 6 g/ha,70%
same,"Results of comparison experiment (16DAA), weed control",Descurainia sophia; 12 g/ha,80%
same,"Results of comparison experiment (16DAA), weed control",Descurainia sophia; 24 g/ha,100%
same,"Results of comparison experiment (16DAA), weed control",Descurainia sophia; 48 g/ha,100%
same,"Results of comparison experiment (16DAA), weed control",Echinochloa crusgali; 3 g/ha,50%
same,"Results of comparison experiment (16DAA), weed control",Echinochloa crusgali; 6 g/ha,50%
same,"Results of comparison experiment (16DAA), weed control",Echinochloa crusgali; 12 g/ha,70%
same,"Results of comparison experiment (16DAA), weed control",Echinochloa crusgali; 24 g/ha,80%
same,"Results of comparison experiment (16DAA), weed control",Echinochloa crusgali; 48 g/ha,100%
same,"Results of comparison experiment, Alopecurus japonicas (120 g/ha)",Alopecurus japonicas,50%
same,pest or weed control at 30 g/ha,Digitaria sanguinalis [2],100%
